Here are results for 1 molecule from patent US20190223443A1, “Methods to Increase Corn Growth” (Valent BioSciences LLC, priority 2015, published 2019).

For the test, the system named is corn hybrid B73 X Mo17. Kind of test: Greenhouse study Long Grove, Ill., sprayed at V1-V2, change in height and synergy (Example 7). Format: in vivo. The conditions noted are these: for Change in height from day of treatment, 2 days post treatment: control 9.74; for Change in height from day of treatment, 4 days post treatment: control 22.59; for Change in height from day of treatment, 6 days post treatment: control 43.03. As for the experimental part: A greenhouse study was conducted at Long Grove, Ill. Seeds of the corn hybrid B73 X Mo17 was sown into potted soil on May 7, 2014. Plants were sprayed at 11 days post sowing (V1-V2) with solutions containing a non-ionic surfactant (0.25%, v/v) and growth was followed for 6 days. GA3 refers to gibberellic acid and ABA refers to abscisic acid. Results of the study described in 3. above can be seen in the following tables describing change in height in centimeters from day of treatment (Table 8) and change in height in centimeters from day of treatment compared to control (Table 9).
Synergy is calculated as follows: […]
Observed difference in height from control/Expected difference in height from control, where expected difference in height from control is the sum of the observed difference in height of each active ingredient applied alone. If the ratio between the experimentally observed efficacy of the mixture and the expected efficacy of the mixture is greater than 1, than synergistic interactions are present in the mixture.

As for `CC1=CC(=O)CC(C)(C)[C@@]1(O)/C=C/C(C)=C\C(=O)O` [ABA, abscisic acid], for the setting “ABA 8.6 ppm alone”, the “Observed change in height from day of treatment compared to control, 2 days post treatment” value (“Observed change … 2 days post treatment” for short) was −0.17 cm; the “Observed change in height from day of treatment compared to control, 4 days post treatment” value (from here on “Observed change … 4 days post treatment”) is given as −0.72 cm; the “Observed change in height from day of treatment compared to control, 6 days post treatment” value (from here on “Observed change … 6 days post treatment”) is reported as −1.37 cm; the “Change in height from day of treatment, 2 days post treatment” value worked out at 9.57 cm. Further, under “ABA 8.6 ppm alone”, the “Change in height from day of treatment, 4 days post treatment” value worked out at 21.87 cm and the “Change in height from day of treatment, 6 days post treatment” value stood at 41.66 cm. For the same molecule, for the setting “ABA 10 ppm alone”, the “Observed change … 2 days post treatment” value is recorded as −0.11 cm; the “Observed change … 4 days post treatment” value is −0.15 cm; the “Observed change … 6 days post treatment” value is −0.33 cm; the “Change in height from day of treatment, 2 days post treatment” value came out at 9.63 cm. For the setting “ABA 10 ppm alone”, the “Change in height from day of treatment, 4 days post treatment” value stood at 22.44 cm and the “Change in height from day of treatment, 6 days post treatment” value turned out to be 42.70 cm. Further, under “ABA 12 ppm alone”, the “Observed change … 2 days post treatment” value was 0.75 cm; the “Observed change … 4 days post treatment” value was −0.49 cm; the “Observed change … 6 days post treatment” value is recorded as 0 cm; the “Change in height from day of treatment, 2 days post treatment” value came out at 10.49 cm. In addition, for the setting “ABA 12 ppm alone”, the “Change in height from day of treatment, 4 days post treatment” value is listed as 22.10 cm and the “Change in height from day of treatment, 6 days post treatment” value came out at 43.03 cm. Further, the “Height of the corn compared to the control (in words)” value (applied alone, at both 4 and 6 days post treatment) is listed as “either did not increase or decreased the height”.
